Consider 23 compounds from US20230053437A1, “LIPID COMPOUNDS AND LIPID NANOPARTICLE COMPOSITIONS” (Suzhou Abogen Biosciences Co., Ltd., priority 2020, published 2023).

Holding throughout (format): physicochemical
Series [1] is described as follows: Encapsulation efficiency of lipid nanoparticles, Quant-it Ribogreen RNA quantification assay. The settings on record: LNP with hEPO mRNA. Here is the method:
(§1) Briefly, a cationic lipid provided herein, DSPC, cholesterol, and PEG-lipid were solubilized in ethanol at a molar ratio of 50:10:38.5:1.5, and mRNA were diluted in 10 to 50 mM citrate buffer, pH=4. The LNPs were prepared at a total lipid to mRNA weight ratio of approximately 10:1 to 30:1 by mixing the ethanolic lipid solution with the aqueous mRNA solution at a volume ratio of 1:3 using a microfluidic apparatus, total flow rate ranging from 9-30 mL/min. Ethanol were thereby removed and replaced by DPBS using dialysis. Finally, the lipid nanoparticles were filtered through a […] sterile filter.
(§2) Lipid nanoparticle size were determined by dynamic light scattering using a Malvern Zetasizer Nano ZS (Malvern UK) using a 173° backscatter detection mode. The encapsulation efficiency of lipid nanoparticles were determined using a Quant-it Ribogreen RNA quantification assay kit (Thermo Fisher Scientific, UK) according to the manufacturer's instructions.

A short description of series [2]: Lipid nanoparticle size by dynamic light scattering (Malvern Zetasizer Nano ZS). The settings on record: LNP: cationic lipid/DSPC/cholesterol/PEG-lipid 50:10:38.5:1.5 with hEPO mRNA. As for the experimental part:
as §1, §2

Series [3] is described as follows: Apparent pKa of LNP formulations, TNS fluorescence assay. The note with it: LNP cationic lipid/DSPC/cholesterol/DMG-PEG 50/10/38.5/1.5 mol %, pH 3 to 9. Here is the method: As reported in literature, the apparent pKa of LNP formulations correlates with the delivery efficiency of LNPs for nucleic acids in vivo. The apparent pKa of each formulation was determined using an assay based on fluorescence of 2-(p-toluidino)-6-napthalene sulfonic acid (TNS). LNP formulations comprising of cationic lipid/DSPC/cholesterol/DMG-PEG (50/10/38.5/1.5 mol %) in PBS were prepared as described above. TNS was prepared as a 300 uM stock solution in distilled water. LNP formulations were diluted to 0.1 mg/ml total lipid in 3 mL of buffered solutions containing 50 mM sodium citrate, 50 mM sodium phosphate, 50 mM sodium borate, and 30 mM sodium chloride where the pH ranged from 3 to 9. An aliquot of the TNS solution was added to give a final concentration of 0.1 mg/ml and following vortex mixing fluorescence intensity was measured at room temperature in a Molecular Devices Spectramax iD3 spectrometer using excitation and mission wavelengths of 325 nm and 435 nm. A sigmoidal best fit analysis was applied to the fluorescence data and the pKa value was measured as the pH giving rise to half-maximal fluorescent intensity.

As to `CCCCCCCCCCCC(=O)OCC1(COC(=O)CCCCCCCCCCC)CCN(C(=O)CCN(C)CCO)CC1` [Compound 2], the “Encapsulation Efficiency” value in series [1] turned out to be 92.5%. Further, in series [2], the polydispersity was found to be 0.079 and the “size (nm)” value came to 80.24 nm. The “Apparant Pka” value in series [3] was found to be 7.29.
Take `CCCCC/C=C\C/C=C\CCCCCCCC(=O)OCC1(COC(=O)CCCCCCC/C=C\C/C=C\CCCCC)CCN(C(=O)CCN2CCCC2)CC1` [Compound 50]: the “Encapsulation Efficiency” value in series [1] is recorded as 97.8%. Also, in series [2], the polydispersity was 0.327 and the “size (nm)” value is given as 86.44 nm. Further, the “Apparant Pka” value in series [3] stood at 10.76.
As to `CCCCCCCCC(CCCCCC)COC(=O)CCCCCC(=O)OCC1(COC(=O)CCCCCC(=O)OCC(CCCCCC)CCCCCCCC)CCN(C(=O)CCN2CCOCC2)CC1` (centres unmarked) [Compound 55], the “Encapsulation Efficiency” value in series [1] came to 80.6%. For the same compound, in series [2], the polydispersity is listed as 0.247 and the “size (nm)” value was 81.29 nm. In addition, the “Apparant Pka” value in series [3] amounted to 7.25.
`CCCCCCCCCCCC(=O)OCC1(COC(=O)CCCCCCCCCCC)CCN(C(=O)CCCN(CC)CCO)CC1` [Compound 35]: the “Encapsulation Efficiency” value in series [1] stood at 96.0%. In addition, in series [2], the polydispersity amounted to 0.261 and the “size (nm)” value was 89.42 nm. Further, in series [3], the “Apparant Pka” value was 8.02.
For the compound `CCCCCCCCCC(=O)OCC1(COC(=O)CCCCCCCCC)CCN(C(=O)CCN(CCCCCC)CCCCCC)CC1` [Compound 32], the “Encapsulation Efficiency” value in series [1] is given as 88.2%. Besides, in series [2], the polydispersity is on record as 0.13 and the “size (nm)” value is 93.36 nm. The “Apparant Pka” value in series [3] is given as 6.34.
As to `CCCCCCCCCCCC(=O)OCC1(COC(=O)CCCCCCCCCCC)CCN(C(=O)CCN(CCO)CCO)CC1` [Compound 4], the “Encapsulation Efficiency” value in series [1] amounted to 92.8%. Moreover, in series [2], the polydispersity is 0.199 and the “size (nm)” value worked out at 64.29 nm. Besides, the “Apparant Pka” value in series [3] came to 7.18.
For `CCCCCCCCCCCC(=O)OCC1(COC(=O)CCCCCCCCCCC)CCN(C(=O)CCN(CCO)CCCCCC)CC1` [Compound 26], in series [1], the “Encapsulation Efficiency” value is listed as 89.7%. Moreover, in series [2], the polydispersity came out at 0.138 and the “size (nm)” value was 91.83 nm. Besides, the “Apparant Pka” value in series [3] was 7.57.
On to `CCCCCCCCCCCC(=O)OCC1(COC(=O)CCCCCCCCCCC)CCN(C(=O)CCCN(CCO)CCCC)CC1` [Compound 37], for which the “Encapsulation Efficiency” value in series [1] is listed as 94.9%. In addition, in series [2], the polydispersity was determined as 0.386 and the “size (nm)” value turned out to be 95.98 nm. The “Apparant Pka” value in series [3] turned out to be 6.04.
In the case of `CCCCCCCCCCCC(=O)OCC1(COC(=O)CCCCCCCCCCC)CCN(C(=O)CCCN2CCCCCC2)CC1` [Compound 41], in series [1], the “Encapsulation Efficiency” value worked out at 96.1%. Moreover, in series [2], the polydispersity is 0.15 and the “size (nm)” value is 90.15 nm. For the same compound, in series [3], the “Apparant Pka” value is reported as approximately 12.82.
For the compound `CCCCCCCCCCCC(=O)OCC1(COC(=O)CCCCCCCCCCC)CCN(CCCCCO)CC1` [Compound 20], the “Encapsulation Efficiency” value in series [1] was 92.6%. In series [2], the polydispersity turned out to be 0.161 and the “size (nm)” value stood at 81.62 nm. Besides, the “Apparant Pka” value in series [3] is 8.23.
As for `CCCCCCCCCCCC(=O)OCC1(COC(=O)CCCCCCCCCCC)CCN(C(=O)CCN2CCCCC2)CC1` [Compound 6], the “Encapsulation Efficiency” value in series [1] is reported as 89.2%. Moreover, in series [2], the polydispersity was found to be 0.064 and the “size (nm)” value came out at 100 nm. In series [3], the “Apparant Pka” value is 6.85.
Turning to `CCCCCCCCCCCC(=O)OCC1(COC(=O)CCCCCCCCCCC)CCN(C(=O)CCN(CCCC)CCCC)CC1` [Compound 30], in series [1], the “Encapsulation Efficiency” value is on record as 80.1%. In series [2], the polydispersity came out at 0.056 and the “size (nm)” value is given as 92.03 nm. Also, the “Apparant Pka” value in series [3] is on record as 6.77.
`CCCCCCCCC(CCCCCC)COC(=O)CCCCCC(=O)OCC1(COC(=O)CCCCCC(=O)OCC(CCCCCC)CCCCCCCC)CCN(C(=O)CCCN2CCCC2)CC1` (centres unmarked) [Compound 58]: the “Encapsulation Efficiency” value in series [1] amounted to 102.4%. In series [2], the polydispersity turned out to be 0.356 and the “size (nm)” value is reported as 97.85 nm. The “Apparant Pka” value in series [3] came to 13.72.
Take `CCCCCCCCC(CCCCCC)COC(=O)CCCCCC(=O)OCC1(COC(=O)CCCCCC(=O)OCC(CCCCCC)CCCCCCCC)CCN(C(=O)CCCN2CCOCC2)CC1` (centres unmarked) [Compound 60]: in series [1], the “Encapsulation Efficiency” value came to 91.7%. In series [2], the polydispersity stood at 0.048 and the “size (nm)” value came out at 90.17 nm. In series [3], the “Apparant Pka” value came out at 7.44.
On the same counts, the results for `CCCCCCCCCCCC(=O)OCC1(COC(=O)CCCCCCCCCCC)CCN(CCCCO)CC1` [Compound 19] are 94.5%, 0.137, 66.82 nm and 7.93.
With `CCCCCCCCCCCC(=O)OCC1(COC(=O)CCCCCCCCCCC)CCN(C(=O)CCN(C)CCCn2ccc(=O)[nH]c2=O)CC1` [Compound 13], in series [1], the “Encapsulation Efficiency” value amounted to 95.5%. Further, in series [2], the polydispersity stood at 0.127 and the “size (nm)” value is on record as 57.44 nm. For the same compound, the “Apparant Pka” value in series [3] was 7.09.
With `CCCCCCCC(=O)OCC1(COC(=O)CCCCCCC)CCN(CCO)CC1` [Compound 62], in series [1], the “Encapsulation Efficiency” value turned out to be 94.6%. Besides, in series [2], the polydispersity turned out to be 0.122 and the “size (nm)” value turned out to be 120.8 nm. The “Apparant Pka” value in series [3] is 6.972.
With `CCCCCCCCC(CCCCCC)COC(=O)CCCCCC(=O)OCC1(COC(=O)CCCCCC(=O)OCC(CCCCCC)CCCCCCCC)CCN(C(=O)CCN2CCCCCC2)CC1` (centres unmarked) [Compound 54], in series [1], the “Encapsulation Efficiency” value is 99.7%. In series [2], the polydispersity is 0.168 and the “size (nm)” value was 84.09 nm. Besides, the “Apparant Pka” value in series [3] amounted to 8.31.
As to `CCCCCCCCCCCC(=O)OCC1(COC(=O)CCCCCCCCCCC)CCN(C(=O)CCN(CCCCCC)CCCNc2c(N(C)C)c(=O)c2=O)CC1` [Compound 49], in series [1], the “Encapsulation Efficiency” value turned out to be 95.8%. In series [2], the polydispersity turned out to be 0.291 and the “size (nm)” value was 87.3 nm. Further, the “Apparant Pka” value in series [3] was found to be 4.76.
With `CCCCCCCCCCCC(=O)OCC1(COC(=O)CCCCCCCCCCC)CCN(CCCO)CC1` [Compound 18], the “Encapsulation Efficiency” value in series [1] is reported as 94.0%. In series [2], the polydispersity stood at 0.212 and the “size (nm)” value came to 105.9 nm. Further, in series [3], the “Apparant Pka” value is listed as 7.17.
Consider `CCCCCCCCCCCC(=O)OCC1(COC(=O)CCCCCCCCCCC)CCN(C(=O)CCN(CCO)CCCCC)CC1` [Compound 25], for which the “Encapsulation Efficiency” value in series [1] is reported as 89.3%. For the same compound, in series [2], the polydispersity is 0.153 and the “size (nm)” value was 69.62 nm. In addition, the “Apparant Pka” value in series [3] amounted to 7.98.
For `CCCCCCCCC(CCCCCC)COC(=O)CCCCCC(=O)OCC1(COC(=O)CCCCCC(=O)OCC(CCCCCC)CCCCCCCC)CCN(C(=O)CCN2CCCC2)CC1` (centres unmarked) [Compound 53] the same measures were 102.1%, 0.316, 94.1 nm and 8.09.
For `CCCCCCCCCCCC(=O)OCC1(COC(=O)CCCCCCCCCCC)CCN(C(=O)CCCN2CCCC2)CC1` [Compound 39] the same measures were 97.0%, 0.42, 89.41 nm and 13.20.
